Data: US7501530B2, “Trifluoromethyl-thiophene carboxylic acid aniledes and use thereof as fungicides” (BASF Aktiengesellschaft, priority 2003, dated 2009)
One block for each compound: values may come before it.

Assays:
Botrytis cinerea [1] = assay: Activity and persistency against gray mold on bell-pepper leaves (Use Example 1); format: in vivo; details: 63 ppm spray; bell-pepper seedlings; inoculated 7 days after treatment; assessed visually after 5 days; untreated 90%
Protocol: Activity and Persistency against Gray Mold, Caused by Botrytis cinerea, on Bell-pepper Leaves Bell-pepper seedlings of the cultivar “Neusiedler Ideal Elite” having 4-5 well-developed leaves were sprayed to runoff point with an aqueous suspension having the concentration stated below of active compounds. The suspension or emulsion was prepared from a stock solution containing 10% of active compound in a mixture comprising 85% of cyclohexanone and 5% of emulsifier. The plants were then cultivated for a further 7 days, and the treated plants were then inoculated with a spore suspension of Botrytis cinerea, which comprised 1.7×10^6 spores/ml in a 2% strength aqueous biomalt solution. The test plants were then placed in a climatized chamber at 22-24° C. in high atmospheric humidity. After 5 days, the extent of the fungal infection on the leaves could be determined visually in %, giving not only an indication of the fungicidal action of the substances but also of the persistency.

Sphaerotheca fuliginea = assay: Protective activity against mildew of cucumber (Use Example 3); format: in vivo; details: 63 ppm spray; cucumber seedlings, cotyledon area; inoculated 20 hours after spray coating dried; assessed after 7 days; untreated 90%
Protocol: Protective Activity Against Mildew of Cucumber Caused by Sphaerotheca fuliginea Leaves of potted cucumber seedlings of the cultivar “Chinese Snake”, in the cotyledon stage, were sprayed to runoff point with an aqueous suspension having the concentration stated below of active compounds. The suspension or emulsion was prepared from a stock solution containing 10% of active compound in a mixture comprising 85% of cyclohexanone and 5% of emulsifier. 20 hours after the spray coating had dried on, the plants were inoculated with an aqueous spore suspension of mildew of cucumber (Sphaerotheca fuliginea). The plants were then cultivated in a greenhouse at 20-24° C. and 60-80% relative atmospheric humidity for 7 days. The extent of mildew development was then determined visually in % infection of the cotyledon area.

Botrytis cinerea [2] = assay: Protective activity against gray mold on bell-pepper leaves (Use Example 2); format: in vivo; details: 250 ppm spray; bell-pepper seedlings; inoculated the next day; assessed visually after 5 days; untreated 100%
Description: Protective Activity against Gray Mold, Caused by Botrytis cinerea, on Bell-pepper Leaves Bell-pepper seedlings of the cultivar “Neusiedler Ideal Elite” having 4-5 well-developed leaves were sprayed to runoff point with an aqueous suspension having the concentration stated below of active compounds. The active compounds were separately prepared as a stock solution containing 0.25% by weight of active compound in acetone or dimethyl sulfoxide. This solution was admixed with 1% by weight of Emulgator Uniperol® EL (wetting agent based on ethoxylated alkylphenols which has an emulsifying and dispersing effect) and diluted with water to the desired concentration. The next day, the treated plants were inoculated with a spore suspension of Botrytis cinerea, comprising 1.7×10^6 spores/ml in a 2% strength aqueous biomalt solution. The test plants were then placed in a climatized chamber at 22-24° C. in high atmospheric humidity. After 5 days, the extent of the fungal infection on the leaves could be determined visually in %.

SMILES: CCC(C)c1ccccc1NC(=O)c1sccc1C(F)(F)F (stereo not drawn) [I-1]
- Foliar infection [%] at 63 ppm (Botrytis cinerea [1]): 5%

SMILES: O=C(Nc1ccccc1C1CCCC1)c1sccc1C(F)(F)F [I-2]
- Foliar infection [%] at 63 ppm (Botrytis cinerea [1]): 7%

SMILES: O=C(Nc1ccccc1C1CCCCC1)c1sccc1C(F)(F)F [I-3]
- Foliar infection [%] at 63 ppm (Botrytis cinerea [1]): 3%
- Foliar infection [%] at 63 ppm (Sphaerotheca fuliginea): 5%

SMILES: O=C(Nc1ccccc1OC(F)(F)C(F)F)c1sccc1C(F)(F)F [I-5]
- Foliar infection [%] at 63 ppm (Botrytis cinerea [1]): 3%
- Foliar infection [%] at 63 ppm (Sphaerotheca fuliginea): 5%

SMILES: O=C(Nc1ccccc1-c1ccc(Cl)cc1)c1sccc1C(F)(F)F [I-6]
- Foliar infection [%] at 63 ppm (Botrytis cinerea [1]): 1%
- Foliar infection [%] at 63 ppm (Sphaerotheca fuliginea): 0%

SMILES: O=C(Nc1ccccc1-c1ccc(F)cc1)c1sccc1C(F)(F)F [I-7]
- Foliar infection [%] at 63 ppm (Botrytis cinerea [1]): 1%
- Foliar infection [%] at 63 ppm (Sphaerotheca fuliginea): 0%

SMILES: CC(C)Oc1cccc(NC(=O)c2sccc2C(F)(F)F)c1 [I-8]
- Foliar infection [%] at 63 ppm (Botrytis cinerea [1]): 10%

SMILES: O=C(Nc1cccc(OC2CCCC2)c1)c1sccc1C(F)(F)F [I-11]
- Foliar infection [%] at 63 ppm (Botrytis cinerea [1]): 7%

SMILES: O=C(Nc1ccccc1-c1ccccc1)c1sccc1C(F)(F)F [I-12]
- Foliar infection [%] at 63 ppm (Sphaerotheca fuliginea): 0%

SMILES: CC(C)c1ccc(-c2ccccc2NC(=O)c2sccc2C(F)(F)F)cc1 [I-13]
- Foliar infection [%] at 63 ppm (Sphaerotheca fuliginea): 0%

- melting point: 125 to 127 °C
SMILES: O=C(Nc1ccccc1OCC(F)(F)F)c1sccc1C(F)(F)F [I-14, N-(2-(2,2,2-trifluoroethoxy)phenyl)-3-trifluoromethylthiophene-2-carboxamide]

SMILES: O=C(Nc1ccccc1C1CCCC1)c1ccsc1C(F)(F)F [II-2]
- Foliar infection [%] at 63 ppm (Botrytis cinerea [1]): 10%

SMILES: O=C(Nc1ccccc1C1CCCCC1)c1ccsc1C(F)(F)F [II-3]
- Foliar infection [%] at 63 ppm (Botrytis cinerea [1]): 5%
- Foliar infection [%] at 63 ppm (Sphaerotheca fuliginea): 3%

SMILES: O=C(Nc1ccccc1OC(F)(F)C(F)F)c1ccsc1C(F)(F)F [II-5]
- Foliar infection [%] at 63 ppm (Botrytis cinerea [1]): 3%

SMILES: O=C(Nc1ccccc1-c1ccc(Cl)cc1)c1ccsc1C(F)(F)F [II-6]
- Foliar infection [%] at 63 ppm (Sphaerotheca fuliginea): 0%

SMILES: O=C(Nc1ccccc1-c1ccc(F)cc1)c1ccsc1C(F)(F)F [II-7]
- Foliar infection [%] at 63 ppm (Botrytis cinerea [1]): 1%
- Foliar infection [%] at 63 ppm (Sphaerotheca fuliginea): 5%

SMILES: CC(C)Oc1cccc(NC(=O)c2ccsc2C(F)(F)F)c1 [II-8, N-(3-isopropoxyphenyl)-2-trifluoromethylthiophene-3-carboxamide]
- Foliar infection [%] at 63 ppm (Botrytis cinerea [1]): 5%

SMILES: CCCCCCOc1cccc(NC(=O)c2ccsc2C(F)(F)F)c1 [II-10]
- Foliar infection [%] at 63 ppm (Botrytis cinerea [1]): 10%

SMILES: Cc1ccccc1-c1ccccc1NC(=O)c1cscc1C(F)(F)F [III-4]
- Foliar infection [%] at 250 ppm (Botrytis cinerea [2]): 3%

SMILES: CCC(C)c1ccccc1NC(=O)c1cscc1C(F)(F)F (stereo not drawn) [III-5]
- Foliar infection [%] at 250 ppm (Botrytis cinerea [2]): 3%

SMILES: O=C(Nc1ccccc1C1CCCC1)c1cscc1C(F)(F)F [III-7]
- Foliar infection [%] at 250 ppm (Botrytis cinerea [2]): 7%
